The source made the active and inactive calls. The rule behind the calls is not given here.
Key:
Assay type in all cases: functional, cell-based
[1] = tested on: RAW264.7; test: Induction of apoptosis in mouse RAW 264.7 preosteoclast cells at 2.5 uM incubated for 24 hrs by Caspase 3/7 assay
[2] = tested on: RAW264.7; test: Disruption of differentiated mouse RAW 264.7 osteoclast assessed as loss of osteoclast at 47 uM incubated for 72 hrs by TRAP staining
[3] = tested on: RAW264.7; test: Antiproliferative activity against mouse RAW 264.7 preosteoclast cells assessed as reduction in cell viability incubated for 24 hrs by MTS viability assay; settings: RAW264.7, 24 h
[4] = tested on: RAW264.7; test: Antiproliferative activity against mouse differentiated RAW 264.7 osteoclast cells assessed as reduction in cell viability incubated for 48 hrs by MTS viability assay; settings: RAW264.7, 48 h
[5] = tested on: RAW264.7; test: Disruption of differentiated mouse RAW 264.7 osteoclast assessed as loss of osteoclast at 47 uM incubated for 48 hrs by TRAP staining
[6] = tested on: RAW264.7; test: Antiproliferative activity against mouse RAW 264.7 preosteoclast cells assessed as reduction in cell viability incubated for 72 hrs by MTS viability assay; settings: RAW264.7, 72 h
[7] = tested on: RAW264.7; test: Disruption of differentiated mouse RAW 264.7 osteoclast assessed as reduction in cell density at 120 uM incubated for 72 hrs by TRAP staining
[8] = tested on: RAW264.7; test: Disruption of differentiated mouse RAW 264.7 osteoclast assessed as loss of osteoclast at 1.6 uM incubated for 24 hrs by TRAP staining
[9] = tested on: RAW264.7; test: Disruption of differentiated mouse RAW 264.7 osteoclast assessed as reduction in cell density at 1.6 uM incubated for 24 hrs by TRAP staining
[10] = tested on: RAW264.7; test: Disruption of differentiated mouse RAW 264.7 osteoclast assessed as loss of osteoclast at 47 uM incubated for 24 hrs by TRAP staining
[11] = tested on: RAW264.7; test: Induction of apoptosis in mouse differentiated RAW 264.7 osteoclast cells at 47 uM incubated for 72 hrs by Caspase 3/7 assay
[12] = tested on: RAW264.7; test: Disruption of differentiated mouse RAW 264.7 osteoclast assessed as loss of osteoclast at 120 uM incubated for 24 hrs by TRAP staining
[13] = tested on: RAW264.7; test: Disruption of differentiated mouse RAW 264.7 osteoclast assessed as loss of osteoclast at 120 uM incubated for 48 hrs by TRAP staining
[14] = tested on: RAW264.7; test: Antiproliferative activity against mouse differentiated RAW 264.7 osteoclast cells assessed as reduction in cell viability incubated for 24 hrs by MTS viability assay; settings: RAW264.7, 24 h
[15] = tested on: RAW264.7; test: Induction of apoptosis in mouse differentiated RAW 264.7 osteoclast cells at 1.6 uM incubated for 24 hrs by Caspase 3/7 assay
[16] = tested on: RAW264.7; test: Disruption of differentiated mouse RAW 264.7 osteoclast assessed as reduction in cell density at 1.6 uM incubated for 72 hrs by TRAP staining
[17] = tested on: RAW264.7; test: Induction of apoptosis in mouse differentiated RAW 264.7 osteoclast cells at 1.6 uM incubated for 48 hrs by Caspase 3/7 assay
[18] = tested on: RAW264.7; test: Antiproliferative activity against mouse RAW 264.7 preosteoclast cells assessed as reduction in cell viability incubated for 48 hrs by MTS viability assay; settings: RAW264.7, 48 h
[19] = tested on: RAW264.7; test: Disruption of differentiated mouse RAW 264.7 osteoclast assessed as reduction in cell density at 120 uM incubated for 24 hrs by TRAP staining
[20] = tested on: RAW264.7; test: Induction of apoptosis in mouse differentiated RAW 264.7 osteoclast cells at 120 uM incubated for 24 hrs by Caspase 3/7 assay
[21] = tested on: RAW264.7; test: Downregulation of Six1 mRNA expression in mouse differentiated RAW 264.7 osteoclasts cells at 47 uM incubated for 24 hrs by qRT-PCR analysis
[22] = tested on: RAW264.7; test: Antiproliferative activity against mouse differentiated RAW 264.7 osteoclast cells assessed as reduction in cell viability incubated for 72 hrs by MTS viability assay; settings: RAW264.7, 72 h
[23] = tested on: RAW264.7; test: Downregulation of Six1 mRNA expression in mouse differentiated RAW 264.7 osteoclasts cells at 120 uM incubated for 48 hrs by qRT-PCR analysis
[24] = tested on: RAW264.7; test: Disruption of differentiated mouse RAW 264.7 osteoclast assessed as reduction in cell density at 47 uM incubated for 72 hrs by TRAP staining
[25] = tested on: RAW264.7; test: Disruption of differentiated mouse RAW 264.7 osteoclast assessed as reduction in cell density at 120 uM incubated for 48 hrs by TRAP staining
[26] = tested on: RAW264.7; test: Downregulation of Six1 mRNA expression in mouse RAW 264.7 preosteoclasts at 2.5 uM incubated for 24 hrs by qRT-PCR analysis
[27] = tested on: RAW264.7; test: Induction of apoptosis in mouse RAW 264.7 preosteoclast cells at 2.5 uM incubated for 72 hrs by Caspase 3/7 assay
[28] = tested on: RAW264.7; test: Disruption of differentiated mouse RAW 264.7 osteoclast assessed as loss of osteoclast at 120 uM incubated for 72 hrs by TRAP staining
[29] = tested on: RAW264.7; test: Downregulation of Six1 mRNA expression in mouse RAW 264.7 preosteoclasts at 2.5 uM incubated for 48 hrs by qRT-PCR analysis
[30] = tested on: RAW264.7; test: Induction of apoptosis in mouse differentiated RAW 264.7 osteoclast cells at 1.6 uM incubated for 72 hrs by Caspase 3/7 assay
[31] = tested on: RAW264.7; test: Disruption of differentiated mouse RAW 264.7 osteoclast assessed as reduction in cell density at 47 uM incubated for 24 hrs by TRAP staining
[32] = tested on: RAW264.7; test: Induction of apoptosis in mouse differentiated RAW 264.7 osteoclast cells at 120 uM incubated for 48 hrs by Caspase 3/7 assay
[33] = tested on: RAW264.7; test: Disruption of differentiated mouse RAW 264.7 osteoclast assessed as reduction in cell density at 1.6 uM incubated for 48 hrs by TRAP staining
[34] = tested on: RAW264.7; test: Disruption of differentiated mouse RAW 264.7 osteoclast assessed as loss of osteoclast at 1.6 uM incubated for 48 hrs by TRAP staining
[35] = tested on: RAW264.7; test: Downregulation of Six1 mRNA expression in mouse differentiated RAW 264.7 osteoclasts cells at 120 uM incubated for 24 hrs by qRT-PCR analysis
[36] = tested on: RAW264.7; test: Disruption of differentiated mouse RAW 264.7 osteoclast assessed as reduction in cell density at 47 uM incubated for 48 hrs by TRAP staining
[37] = tested on: RAW264.7; test: Induction of apoptosis in mouse differentiated RAW 264.7 osteoclast cells at 47 uM incubated for 24 hrs by Caspase 3/7 assay
[38] = tested on: RAW264.7; test: Downregulation of Six1 mRNA expression in mouse differentiated RAW 264.7 osteoclasts cells at 47 uM incubated for 48 hrs by qRT-PCR analysis
[39] = tested on: RAW264.7; test: Induction of apoptosis in mouse differentiated RAW 264.7 osteoclast cells at 120 uM incubated for 72 hrs by Caspase 3/7 assay
[40] = tested on: RAW264.7; test: Disruption of differentiated mouse RAW 264.7 osteoclast assessed as loss of osteoclast at 1.6 uM incubated for 72 hrs by TRAP staining

SMILES: O[C@]12C=C(c3nccc4c3[nH]c3ccccc34)[C@@H]3CCN(CCCC/C=C\CC1)C[C@@]31C[C@@H]3/C=C\CCCCN3[C@H]12 [MANZAMINE A]
- Activity [1]: Active
- Activity [2]: Active
- IC50 [3]: 2500 nM
- IC50 [4]: 120000 nM
- Activity [5]: Active
- IC50 [6]: 1900 nM
- Activity [7]: Active
- Activity [8]: inactive
- Activity [9]: inactive
- Activity [10]: Active
- Activity [11]: inactive
- Activity [12]: Active
- Activity [13]: Active
- IC50 [14]: 1600 nM
- Activity [15]: Active
- Activity [16]: Active
- Activity [17]: Active
- IC50 [18]: 2200 nM
- Activity [19]: Active
- Activity [20]: Active
- Activity [21]: Active
- IC50 [22]: 47000 nM
- Activity [23]: Active
- Activity [24]: Active
- Activity [25]: Active
- Activity [26]: Active
- Activity [27]: inactive
- Activity [28]: Active
- Activity [29]: Active
- Activity [30]: inactive
- Activity [31]: Active
- Activity [32]: inactive
- Activity [33]: Active
- Activity [34]: Active
- Activity [35]: Active
- Activity [36]: Active
- Activity [37]: Active
- Activity [38]: Active
- Activity [39]: inactive
- Activity [40]: Active

From ChEMBL document CHEMBL5344443, “Manzamine-A Alters In Vitro Calvarial Osteoclast Function” (J Nat Prod, 2024)
